Measured values from patent publication US20050165024A1, “Urea derivatives as kinase modulators” (Ambit Biosciences Corporation, priority 2003, published 2005).

molecular target: T1, p38-alpha(FKIN) (Homo sapiens, UniProt Q16539); assay: Binding constant (Kd) measurement, phage-displayed kinase competition binding assay: p38; details: Kd class symbols
T1 construct: made in house
Source text: (§1) The term “ND” represents non-determined values.

T1 sequence (Q16539 whole entry): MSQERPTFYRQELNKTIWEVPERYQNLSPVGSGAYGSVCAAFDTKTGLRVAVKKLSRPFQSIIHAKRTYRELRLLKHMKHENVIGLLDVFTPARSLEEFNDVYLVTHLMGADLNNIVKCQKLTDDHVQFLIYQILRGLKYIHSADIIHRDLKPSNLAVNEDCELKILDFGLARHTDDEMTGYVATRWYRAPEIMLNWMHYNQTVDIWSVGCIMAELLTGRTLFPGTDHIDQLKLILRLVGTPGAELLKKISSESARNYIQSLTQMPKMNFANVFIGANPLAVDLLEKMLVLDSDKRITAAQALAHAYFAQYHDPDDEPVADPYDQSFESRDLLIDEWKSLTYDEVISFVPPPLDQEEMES

| Compound | Kd |
| --- | --- |
| CC(C)(C)c1cc(NC(=O)Nc2ccc(Cl)cc2)on1 | 1000 to 10000 nM |
| COc1ccc(NC(=O)Nc2cc(C(C)(C)C)no2)cc1 | 1000 to 10000 nM |
| CC(C)(C)c1cc(NC(=O)Nc2ccc(Br)cc2F)on1 | 100 to 1000 nM |
| CC(C)(C)c1cc(NC(=O)Nc2ccc(OCCN3CCCCC3)c3ccccc23)no1 | < 100 nM |
| CSc1ccc(NC(=O)Nc2cc(C(C)(C)C)no2)cc1 | 1000 to 10000 nM |
| COc1ccc(NC(=O)Nc2cc(C(C)(C)C)nn2-c2ccc(C)cc2)cc1 | 100 to 1000 nM |
| Cc1ccc(-n2nc(C(C)(C)C)cc2NC(=O)Nc2ccc(Br)cc2C(F)(F)F)cc1 | 100 to 1000 nM |
| CC(C)(C)c1cc(NC(=O)NCc2cccc(Cl)c2)no1 | 100 to 1000 nM |
| Cc1ccc(-n2nc(C(C)(C)C)cc2NC(=O)Nc2cc(C(C)(C)C)on2)cc1 | 100 to 1000 nM |
| Cc1ccc(-n2nc(C(C)(C)C)cc2NC(=O)Nc2ccc(Cl)c(C(F)(F)F)c2)cc1 | 100 to 1000 nM |
| Cc1ccc(-n2nc(C(C)(C)C)cc2NC(=O)Nc2ccc(Cl)cc2)cc1 | < 100 nM |
| Cc1ccc(-n2nc(C(C)(C)C)cc2NC(=O)Nc2ccc(O)cc2)cc1 | 100 to 1000 nM |
| O=C(Nc1ccccc1)Nc1cc(Cl)c([N+](=O)O)cc1O | 100 to 1000 nM |
| Cc1c(Cl)cccc1NC(=O)Nc1cc(C(C)(C)C)on1 | 100 to 1000 nM |
| Cc1ccc(-n2nc(C(C)(C)C)cc2NC(=O)Nc2ccc(OCc3ccccc3)cc2)cc1 | 100 to 1000 nM |
| Cc1ccc(-n2nc(C(C)(C)C)cc2NC(=O)Nc2ccc(OCCN3CCOC(CO)C3)c3ccccc23)cc1 (stereo not drawn) | < 100 nM |
| NC(=O)c1cc(Oc2ccc(Nc3c(Nc4ccc(Cl)c(C(F)(F)F)c4)c(=O)c3=O)cc2)ccn1 | 100 to 1000 nM |
| Cn1nc(C(C)(C)C)cc1NC(=O)Nc1cccc2ccccc12 | 100 to 1000 nM |

Continued, values first:

| Kd | Compound |
| --- | --- |
| 1000 to 10000 nM | Cc1ccc(NC(=O)Nc2cc(C(C)(C)C)on2)cc1 |
| 1000 to 10000 nM | CC(C)(C)c1cc(NC(=O)Nc2ccc(O)cc2)no1 |
| 1000 to 10000 nM | COc1ccc(NC(=O)Nc2cc(C(C)(C)C)on2)cc1 |
| 1000 to 10000 nM | CC(C)(C)c1cc(NC(=O)Nc2ccc(Cl)cc2)no1 |
| 1000 to 10000 nM | CSc1ccc(NC(=O)Nc2cc(C(C)(C)C)on2)cc1 |
| 1000 to 10000 nM | C[S+]([O-])c1ccc(NC(=O)Nc2cc(C(C)(C)C)on2)cc1 (stereo not drawn) |
| 1000 to 10000 nM | CC(C)(C)c1cc(NC(=O)Nc2ccccc2)no1 |
| 100 to 1000 nM | CC(C)(C)c1cc(NC(=O)Nc2ccc(NC(=O)c3cccnc3)cc2)no1 |
| 1000 to 10000 nM | CC(C)(C)c1cc(NC(=O)Nc2ccc(NC(=O)c3cnc4ccccc4c3)cc2)no1 [drawing 680] |

molecular target: T2, STK10(DKIN) (Homo sapiens, UniProt O94804); assay: Binding constant (Kd) measurement, phage-displayed kinase competition binding assay: STK10; details: Kd class symbols
T2 construct: STK10(DKIN); made in house
T2 sequence (O94804 36-294 limits assumed): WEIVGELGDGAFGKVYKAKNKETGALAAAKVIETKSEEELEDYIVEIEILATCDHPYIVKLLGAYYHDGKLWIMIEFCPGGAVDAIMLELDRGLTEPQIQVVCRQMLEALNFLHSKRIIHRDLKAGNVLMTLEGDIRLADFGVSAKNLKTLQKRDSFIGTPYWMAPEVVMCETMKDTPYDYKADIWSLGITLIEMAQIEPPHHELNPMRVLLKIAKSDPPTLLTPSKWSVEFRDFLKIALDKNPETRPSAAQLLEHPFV
Source text: as §1

| Compound | Kd |
| --- | --- |
| COc1cc2ncnc(Nc3ccc(NC(=O)Nc4cc(C(C)(C)C)on4)cc3)c2cc1OC [drawing 698] | < 100 nM |
| COc1cc2nc(Cl)nc(Nc3ccc(NC(=O)Nc4cc(C(C)(C)C)on4)cc3)c2cc1OC [drawing 699] | < 100 nM |

The remaining lines, values ahead:

| Kd | Compound |
| --- | --- |
| 100 to 1000 nM | CC(C)(C)c1cc(NC(=O)Nc2ccc(NC(=O)c3nccnc3N)cc2)no1 |
| < 100 nM | CC(C)(C)c1cc(NC(=O)Nc2ccc(N3C(=O)c4ccccc4C3=O)cc2)no1 |
| 100 to 1000 nM | CC(C)(C)c1cc(NC(=O)Nc2ccc(NC(=O)c3ncccc3O)cc2)no1 [drawing 696] |
| 100 to 1000 nM | CC(C)(C)c1cc(NC(=O)Nc2ccc(Nc3nc(Cl)nc4[nH]cnc34)cc2)no1 [drawing 697] |
| 1000 to 10000 nM | COc1cc(OC)nc(Oc2cccc(C(=O)Nc3ccc(NC(=O)Nc4cc(C(C)(C)C)on4)cc3)c2)n1 [drawing 700] |
| < 100 nM | CC(C)(C)c1cc(NC(=O)Nc2ccc(Nc3ncnc4[nH]cnc34)cc2)no1 [drawing 701] |
| 100 to 1000 nM | CC(C)(C)c1cc(NC(=O)Nc2ccc(Nc3nc(N)nc4[nH]cnc34)cc2)no1 [drawing 703] |

molecular target: T3, MKNK2 (DKIN) (Homo sapiens, UniProt Q9HBH9); assay: Binding constant (Kd) measurement, phage-displayed kinase competition binding assay: MKNK2; details: Kd class symbols
T3 construct: (DKIN); made in house
T3 sequence (Q9HBH9 84-388 limits assumed): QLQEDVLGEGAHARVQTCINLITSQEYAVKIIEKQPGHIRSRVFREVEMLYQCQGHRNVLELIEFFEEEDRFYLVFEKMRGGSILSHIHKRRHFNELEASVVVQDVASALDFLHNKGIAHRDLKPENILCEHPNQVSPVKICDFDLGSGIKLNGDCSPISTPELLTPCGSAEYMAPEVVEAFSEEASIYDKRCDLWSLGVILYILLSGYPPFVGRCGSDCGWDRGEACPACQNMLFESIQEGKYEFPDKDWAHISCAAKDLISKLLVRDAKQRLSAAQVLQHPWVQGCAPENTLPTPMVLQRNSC
Source text: as §1

| Compound | Kd |
| --- | --- |
| CC(C)(C)c1cc(NC(=O)Oc2ccc(NC(=O)c3nccnc3N)cc2)no1 | 100 to 1000 nM |
| COc1cc2nc(Cl)nc(Nc3ccc(NC(=O)Nc4cc(C(C)(C)C)on4)cc3)c2cc1OC [drawing 684] | 1000 to 10000 nM |
| COc1cc2ncnc(Nc3ccc(NC(=O)Nc4cc(C(C)(C)C)on4)cc3)c2cc1OC [drawing 692] | < 100 nM |

Second part, the molecule after the results:

| Kd | Compound |
| --- | --- |
| 100 to 1000 nM | Cc1cnc(C(=O)Nc2ccc(NC(=O)Nc3cc(C(C)(C)C)on3)cc2)cn1 |
| 1000 to 10000 nM | CC(C)(C)c1cc(NC(=O)Nc2ccc(NC(=O)c3ccc4ncccc4c3)cc2)no1 |
| < 100 nM | CC(C)(C)c1cc(NC(=O)Nc2ccc(NC(=O)c3cnnc4ccccc34)cc2)no1 |
| 1000 to 10000 nM | CC(C)(C)c1cc(NC(=O)Nc2ccc(NC(=O)c3cccc4nsnc34)cc2)no1 |
| 100 to 1000 nM | CC(C)(C)c1cc(NC(=O)Nc2ccc(NC(=O)c3cscn3)cc2)no1 |
| 1000 to 10000 nM | Cc1cnc(C(=O)Nc2ccc(NC(=O)Nc3cc(C(C)(C)C)on3)cc2)c(C(=O)O)n1 |
| 1000 to 10000 nM | CC(C)(C)c1cc(NC(=O)Nc2ccc(Nc3nc(Cl)nc4[nH]cnc34)cc2)no1 [drawing 682] |
| < 100 nM | CC(C)(C)c1cc(NC(=O)Nc2ccc(Nc3ncnc4[nH]cnc34)cc2)no1 [drawing 686] |
| < 100 nM | CC(C)(C)c1cc(NC(=O)Nc2ccc(NC(=O)c3ncccc3O)cc2)no1 [drawing 687] |
| 1000 to 10000 nM | CC(C)(C)c1cc(NC(=O)Nc2ccc(NC(=O)c3cnc4ccccc4c3)cc2)no1 [drawing 689] |
| < 100 nM | CC(C)(C)c1cc(NC(=O)Nc2ccc(Nc3nc(N)nc4[nH]cnc34)cc2)no1 [drawing 691] |
| 100 to 1000 nM | COc1cc(OC)nc(Oc2cccc(C(=O)Nc3ccc(NC(=O)Nc4cc(C(C)(C)C)on4)cc3)c2)n1 [drawing 693] |
